Measured values: PMC6429356, “Development of Anthraquinone Analogues as Phosphoglycerate Mutase 1 Inhibitors” (Molecules, 2019)
“Also recorded” adds a separate entry of the source. Read-outs that look alike come from different tables or passages of the source.

Tests used:
[1] = tested on: enolase-pyruvate kinase-LDH; test: Counter screening: control linked enzyme assay with 2PG; assay type: biochemical; conditions: 0.5 μM compound, pyruvate kinase M2, LDH without PGAM1, mean ± s.d. (n = 2)
Description: (§1) Firstly, 1 μL inhibitor in dimethyl sulfoxide (DMSO) incubated with 49 μL 4.6 nM recombinant PGAM1, then 50 μL enzyme mix containing 3 units/mL enolase (Sigma-Aldrich, Saint Louis, MO, USA), 3 units/mL recombinant pyruvate kinase M2 (Sigma-Aldrich), 0.6 units/mL recombinant lactatdehydrogenase (LDH, Sigma-Aldrich), 100 mM Tris-HCl, 100 mM KCl, 5 mM MgCl2, 1 mM adenosine diphosphate (ADP), 0.2 mM the reduced form of nicotinamide adenine dinucleotide (NADH) and 4 mM 3PG was added. PGAM1 activity was measured as the decrease in OD at 340 nm. In addition, we performed a counter screening in which 4mM 2PG was added to 50 μL reaction mix containing the indicated inhibitor, 3 units/mL enolase (Sigma-Aldrich), 3 units/mL recombinant pyruvate kinase M2 (Sigma-Aldrich), 0.6 units/mL recombinant LDH (Sigma-Aldrich), 100 mM Tris-HCl, 100 mM KCl, 5 mM MgCl2, 1 mM ADP and 0.2 mM NADH. The other three enzyme activity was measured as the decrease in OD at 340 nm.

A549 cells = test: Cell viability assay (MTT, 72 h), A549; assay type: cell-based; conditions: Homo sapiens, proliferation, mean ± s.d. (n = 3)
Description: (§2) The H1299 cell line was obtained from Guangzhou Jenniobio Biotechnology Co., Ltd. (Guangzhou, China), PC9 and A549 cells were gifted from Deng Jiong’s lab in the School of Medicine, Shanghai Jiao Tong University, Shanghai, China). H1299, PC9 cells were cultured in RPMI-1640 medium and A549 cells were cultured in F-12K medium containing 10% fetal bovine serum (FBS), 100 units/mL of Penicillin and 100 μg/mL Streptomycin. In cell viability assays, 2000 H1299 cells, A549 cells or 1000 PC9 cells per well were seeded in 96-well plate. After attachment for 24 h, the cells were treated with indicated inhibitor for 72 h. After incubation with 0.5 mg/mL methylthiazolyldiphenyl-tetrazolium bromide (MTT) for 4 h, cell viability was measured as the OD at 570 nm.

PGAM1 [2] = biological target: T1, PGAM1 (Homo sapiens, UniProt P18669); test: PGAM1 enzymatic assay (enolase-pyruvate kinase-LDH coupled, OD 340 nm); assay type: biochemical; conditions: optimized enzymatic assay; mean ± s.d. (n = 3)
T1 construct: His6 (C); made in house
Description: as §1

PC9 cells = test: Cell viability assay (MTT, 72 h), PC9; assay type: cell-based; conditions: Homo sapiens, PC-9, proliferation, mean ± s.d. (n = 3)
Description: as §2

H1299 cells [3] = test: Cell viability assay (MTT, 72 h), H1299; assay type: cell-based; conditions: Homo sapiens, NCI-H1299, proliferation, mean ± s.d. (n = 3)
Description: as §2

[4] = tested on: PGAM1 mutations (F22A, R116H and R191H); test: Inhibition of PGAM1 mutants compared with wild type; assay type: biochemical; conditions: 5 μM compound
Text: To further understand the molecular mechanism of the anthraquinone derivatives interacting with PGAM1, we determined the X-ray structure of PGAM1 in complex with compound 9i at resolution of 1.98 Å (Table 5). Compound 9i occupied a novel allosteric site adjacent to substrate binding site with nice electron density (Figure 3A,B). The allosteric pocket was surrounded by the residues of F22, R90, K100, R116 and R191. In detail, the anthraquinone scaffold and sulfonamide of compound 9i interacted with the main chain carbonyl of K100 through water bridges (Figure 3C). In addition, a hydrophobic interaction was observed between F22 and chlorine-substituted phenyl ring of compound 9i (Figure 3C). […]
Firstly, 1 μL inhibitor in dimethyl sulfoxide (DMSO) incubated with 49 μL 4.6 nM recombinant PGAM1, then 50 μL enzyme mix containing 3 units/mL enolase (Sigma-Aldrich, Saint Louis, MO, USA), 3 units/mL recombinant pyruvate kinase M2 (Sigma-Aldrich), 0.6 units/mL recombinant lactatdehydrogenase (LDH, Sigma-Aldrich), 100 mM Tris-HCl, 100 mM KCl, 5 mM MgCl2, 1 mM adenosine diphosphate (ADP), 0.2 mM the reduced form of nicotinamide adenine dinucleotide (NADH) and 4 mM 3PG was added. PGAM1 activity was measured as the decrease in OD at 340 nm. […] The other three enzyme activity was measured as the decrease in OD at 340 nm. […]

PGAM1 [5] = biological target: T1, PGAM1; test: Substrate competitive assay with 3PG; assay type: biochemical
Solubility = assay type: physicochemical; conditions: remark in text, no method given
H1299 cells [6] = tested on: H1299 cells; design: method as in PMID 28611670, PMID 23153533, PMID 29530347; conditions: Figure 1; read-out: H1299 cells IC50 (reported inhibitors); cited from earlier work
PGAM1 [7] = biological target: T1, PGAM1; design: method as in PMID 16200062, PMID 28611670, PMID 23153533, PMID 29530347; conditions: Figure 1; read-out: PGAM1 IC50 (reported inhibitors); cited from earlier work
MDA-MB-231 cells = tested on: MDA-MB-231 cells; design: method as in PMID 16200062; conditions: Figure 1; read-out: MDA-MB-231 cells IC50 (reported inhibitor); cited from earlier work

T1 sequence (P18669 whole entry): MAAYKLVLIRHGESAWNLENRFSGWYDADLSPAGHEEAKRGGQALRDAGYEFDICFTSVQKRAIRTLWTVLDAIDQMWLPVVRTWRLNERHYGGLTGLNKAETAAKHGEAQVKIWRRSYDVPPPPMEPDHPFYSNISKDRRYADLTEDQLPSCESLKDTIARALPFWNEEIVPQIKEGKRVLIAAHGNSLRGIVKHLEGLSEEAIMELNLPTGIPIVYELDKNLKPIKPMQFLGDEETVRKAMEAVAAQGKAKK

SMILES	Inhibition in the Control Linked Enzyme Assay (0.5 μM) [1]	IC50 (A549 cells)	IC50 (PGAM1 [2])	IC50 (PC9 cells)	IC50 (H1299 cells [3])	IC50 (H1299 cells [6])	other results
O=C1c2ccccc2C(=O)c2c1cc(NS(=O)(=O)c1ccc(OC(F)(F)F)cc1)c(O)c2O [Compound 9c, N-(3,4-Dihydroxy-9,10-dioxo-9,10-dihydroanthracen-2-yl)-4-(trifluoromethoxy) benzenesulfonamide]	3.7 ± 1.8%	8 ± 0.8 µM	0.9 ± 0.07 µM	10.2 ± 0.7 µM	16.6 ± 1.8 µM	–	–
O=C1c2ccccc2C(=O)c2c1cc(NS(=O)(=O)c1ccc(Cl)cc1)c(O)c2O [Compound 9i, 4-Chloro-N-(3,4-dihydroxy-9,10-dioxo-9,10-dihydroanthracen-2-yl) benzenesulfonamide]	−6.4 ± 5.0%	12.7 ± 2.7 µM	0.27 ± 0.04 µM	13.8 ± 1 µM	6.9 ± 1.2 µM	–	Inhibition of PGAM1 mutations versus wild type [4]: failed to inhibit mutations of PGAM1 (F22A, R116H and R191H) as effectively as the wild type; Mode of inhibition with respect to substrate 3PG (PGAM1 [5]): noncompetitive inhibitor; also recorded: non-competitive; also recorded: noncompetitive binding; Solubility (Solubility): good solubility
O=C1c2ccccc2C(=O)c2c1cc(NS(=O)(=O)c1c(Cl)cc(Cl)cc1Cl)c(O)c2O [Compound 9l, 2,4,6-Trichloro-N-(3,4-dihydroxy-9,10-dioxo-9,10-dihydroanthracen-2-yl) benzenesulfonamide]	0.2 ± 1.7%	> 50 µM	0.9 ± 0.26 µM	> 50 µM	6.2 ± 1.2 µM	–	–
O=C1c2ccccc2C(=O)c2c1cc(NS(=O)(=O)c1ccc(I)cc1)c(O)c2O [Compound 9p, 4-Iodo-N-(3,4-dihydroxy-9,10-dioxo-9,10-dihydroanthracen-2-yl) benzenesulfonamide]	1.9 ± 0.1%	10.3 ± 1.4 µM	0.47 ± 0.07 µM	13.4 ± 1.8 µM	17.3 ± 3.9 µM	–	–
O=c1c2c(O)cccc2oc2cc(NS(=O)(=O)c3ccc(N4CCCC4)cc3)c(O)c(O)c12 [Compound 12r]	–	–	–	–	–	5 µM	–
O=C(O[C@@H]1Cc2c(O)cc(O)cc2O[C@@H]1c1cc(O)c(O)c(O)c1)c1cc(O)c(O)c(O)c1 [EGCG, (−)-epigallocatechin-3-gallate]	–	–	–	–	–	> 80 µM	–
C#CCCCC(=O)OC(C)(C)C1CCC2(CO2)C(OC(=O)NC(Cc2c[nH]c3ccccc23)C(=O)OCc2ccccc2)C1 (stereo not shown) [MJE3]	–	–	–	–	–	–	IC50 (PGAM1 [7]): 33 µM; IC50 (MDA-MB-231 cells): 19 µM
O=C1c2ccccc2C(=O)c2c1cc(S(=O)(=O)Nc1ccc(C(F)(F)F)cc1)c(O)c2O [PGMI-004A]	–	–	–	–	–	25.6 µM	–
